These results are taken from paper PMC7915765, “Biochemical Characterization, Specificity and Inhibition Studies of HTLV-1, HTLV-2, and HTLV-3 Proteases” (Life, 2021).

Assay [1] deals with T1, HTLV-2 PR (Human T-cell leukemia virus 2, UniProt P03363). Put plainly: biochemical.
Protocol: (§3) The reaction mixtures were prepared to contain 4.8 µL of substrate (in 0.40–0.43 mM final concentration), 0.2 µL of inhibitor, 5 µL of the enzyme, and 10 µL of a 2× incubation buffer. The substrates representing HTLV-2 and HTLV-3 MA/CA cleavage sites were used for HTLV-2 and HTLV-3 PRs, respectively. […] The inhibitors were dissolved in DMSO. Therefore, 0.2 µL of DMSO was added to the control samples.
The target of assay [2] is T2, HTLV-3 PR (Human T-cell leukemia virus 3, UniProt Q4U0X6). Put plainly: biochemical.
Protocol: as §3
Assay [3] relates to HTLV-1 PR. Put plainly: Inhibition study with HIV-1 PIs, HTLV-1 PR. The class given is biochemical, human T-cell leukemia virus type 1. As to conditions: inhibitor 1 µM final. The method, then: (§1) The IB-268 (KTKVL-r-VVQPK) and IB-269 (APQVL-r-PVMHP) reduced peptide bond (-r-)-containing inhibitors, which were synthesized by Dr. Ivo Blaha (Ferring Leciva, Prague, Czech Republic).
(§2) The reaction mixtures were prepared to contain 4.8 µL of substrate (in 0.40–0.43 mM final concentration), 0.2 µL of inhibitor, 5 µL of the enzyme, and 10 µL of a 2× incubation buffer. The substrates representing HTLV-2 and HTLV-3 MA/CA cleavage sites were used for HTLV-2 and HTLV-3 PRs, respectively. In the case of HIV-1 PIs, we applied 100 µM inhibitor stocks, while 0.5–100 µM stocks of IB-268 and IB-269 were used for screening. The inhibitors were dissolved in DMSO. Therefore, 0.2 µL of DMSO was added to the control samples.

Assay [4] deals with T2, HTLV-3 PR. In words: Inhibition study with HIV-1 PIs, HTLV-3 PR. In kind it is biochemical. More on the design: made in house; host or cells: E. coli BL21(DE3), pET11a. As to conditions: inhibitor 1 µM final; for loss of activity: substrate HTLV-3 MA/CA 0.40–0.43 mM, DMSO control = 100%, n = 2. Here is the method: as §1, §2
For assay [5], the target named is T1, HTLV-2 PR. Put plainly: Inhibition study with HIV-1 PIs, HTLV-2 PR. In kind it is biochemical, human T-cell leukemia virus type 2. Details: made in house; host or cells: E. coli BL21(DE3). The note with it: inhibitor 1 µM final; for loss of activity: substrate HTLV-2 MA/CA 0.40–0.43 mM, DMSO control = 100%, n = 2. The method, then: The inhibitors were dissolved in DMSO.

In assay [6] the test system is HTLV-1 PR. More on the design: method as in 2 sources, ref [41] = [41]; PMID 15158589; doi:10.1016/j.jviromet.2004.03.001; 41. Bagossi P. Kádas J. Miklóssy G. Boross P. Weber I.T. Tözsér J. Development of a microtiter plate fluorescent assay for inhibition studies on the HTLV-1 and HIV-1 proteinases J. Virol. Methods 2004 ||| ref [28] = [28]; PMID 15102858; doi:10.1074/jbc.M401868200; 28. Kádas J. Weber I.T. Bagossi P. Miklóssy G. Boross P. Oroszlan S. Tözsér J. Narrow substrate specificity and sensitivity toward ligand-binding site mutations of human T-cell leukemia virus type 1 p. The note with it: ref [28]; cited from earlier work.
Description: (a) Comparison of relative activities determined in the presence of HIV-1 PIs applied in a 1-µM final concentration. For control measurements, reaction mixtures contained no inhibitor. Activity determined in the presence of DMSO was considered to be 100%. Error bars represent SD (n = 2). […] We repeated these experiments in our system for HTLV-2 and HTLV-3 PRs.

In assay [7] the test system is NF-κB transcriptional activation. Details: method as in PMID 18316517. As to conditions: ATLL cells; ref [55]; cited from earlier work.
Another assay deals with ATLL cells. More on the design: method as in PMID 16174765. The note with it: ATLL cells ex vivo; ref [54]; cited from earlier work.
Assay [8] relates to HTLV-1 PR. The note with it: ref [28], cited from earlier work; for activity of mutant (in words): HTLV-1 PR mutants, L57G with HTLV-1 CA/NC substrate (KTKVL*VVQPK); for self-processing: HTLV-1 PR, designed and characterized previously. The text has this:
Table 5 Effects of protease mutations on autoproteolytic activity of HTLV PRs. | column: Self-Processing || We prepared mutant HTLV-2 and HTLV-3 PRs, which contained mutations that were introduced previously to HTLV-1 PR to study its self-processing capability. The rationale behind the former mutation design was to prepare mutant HTLV-1 PRs that contain HIV-1-like residues in the flap region (57th and 59th) or at the active site (37th and 67th). The herein studied enzymes also contained the same mutations in the corresponding positions (Figure 10). All modified residue constitutes a part of substrate binding sites (Table 4).

For assay [9] the following is noted: ASPRV1; ref [51]; cited from earlier work. Here is the method: The dependence of enzyme activity on pH was studied in a 4.5–8.0 range. […] Our results imply that the optimal pH of HTLV-1 PR is higher than it was determined previously by Ha et al. (pH 5.2–5.3). The optimal pH determined for HTLV PRs is similar to the slightly acidic pH optimum of retroviral and retroviral-like proteases, including the HIV-1 PR (pH 4.0–6.0 range), the BLV PR (pH 4.0–6.5 range), ...

“Also recorded” adds a separate entry of the source. *1 amine or outer side, *2 acyl side, *3 side chain or, on linkers, in order; H or OH if unused. Where a SMILES comes first, the peptide text is derived from it. Side-chain parts run from the residue outwards. [ ]: non-standard residue; d: D form. LeuΨ(CH2N)Pro = CC(C)C[C@@H](CN1CCC[C@H]1C(=O)[*:2])N[*:1]; X1 = CC(C)C[C@@H](CN([C@H](C(=O)[*:2])C(C)C)[*:1])N[*:3]

T2 sequence (Q4U0X6 431-553): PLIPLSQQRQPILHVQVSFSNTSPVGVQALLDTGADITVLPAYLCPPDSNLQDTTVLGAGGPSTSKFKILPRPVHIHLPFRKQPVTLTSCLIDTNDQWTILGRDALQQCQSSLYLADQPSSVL
T1 sequence (P03363 447-571): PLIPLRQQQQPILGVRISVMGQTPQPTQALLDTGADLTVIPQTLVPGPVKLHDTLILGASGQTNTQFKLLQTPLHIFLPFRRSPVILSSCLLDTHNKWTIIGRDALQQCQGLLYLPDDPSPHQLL

As for `CC(C)C[C@@H](CN[C@H](C(=O)N[C@H](C(=O)N[C@@H](CCC(N)=O)C(=O)N1CCC[C@H]1C(=O)N[C@@H](CCCCN)C(=O)O)C(C)C)C(C)C)NC(=O)[C@@H](NC(=O)[C@H](CCCCN)NC(=O)[C@@H](NC(=O)[C@@H](N)CCCCN)[C@@H](C)O)C(C)C` [IB-268] (H-[X1]([Val-Lys-Thr-Lys])VQPK-OH), the Ki (as a rule, the dissociation constant of the complex between target and ligand, obtained from inhibition or displacement) on HTLV-2 PR [1] worked out at 37 nM; at HTLV-3 PR [2], 214 nM.
For the molecule `CSCC[C@H](NC(=O)[C@@H](NC(=O)[C@@H]1CCCN1C[C@H](CC(C)C)NC(=O)[C@@H](NC(=O)[C@H](CCC(N)=O)NC(=O)[C@@H]1CCCN1C(=O)[C@H](C)N)C(C)C)C(C)C)C(=O)N[C@@H](Cc1c[nH]cn1)C(=O)N1CCC[C@H]1C(=O)O` [IB-269] (H-APQV[LeuΨ(CH2N)Pro]VMHP-OH), the results for the Ki at HTLV-2 PR [1] and at HTLV-3 PR [2] were 12 nM and 14 nM, respectively.
In the case of `CC(C)CN(C[C@@H](O)[C@H](Cc1ccccc1)NC(=O)O[C@H]1CO[C@H]2OCC[C@H]21)S(=O)(=O)c1ccc(N)cc1` [darunavir], the “inhibitory effect (in words)” value in the assay with HTLV-1 PR [3], on HTLV-3 PR [4] and against HTLV-2 PR [5] was “highest inhibition” in each case. For the same molecule, the loss of activity at HTLV-3 PR [4] and on HTLV-2 PR [5] was below 50% throughout.
Consider `CC(C)(C)NC(=O)[C@@H]1CN(Cc2cccnc2)CCN1C[C@@H](O)C[C@@H](Cc1ccccc1)C(=O)N[C@H]1c2ccccc2C[C@H]1O` [indinavir], for which the “inhibitory effect (in words)” value with HTLV-1 PR [3], on HTLV-3 PR [4] and at HTLV-2 PR [5] was “highest inhibition” throughout. The “decrease of HTLV-1 PR activity” value with HTLV-1 PR [3] (DMSO control = 100%, n = 2) is ~ 50%. The loss of activity on HTLV-3 PR [4] and at HTLV-2 PR [5] was below 50% throughout. Besides, the “inhibition of wild-type HTLV-1 PR (in words)” value in the assay with HTLV-1 PR [6] is on record as “relatively good inhibitors”.
`CC(C)c1nc(CN(C)C(=O)N[C@H](C(=O)N[C@@H](Cc2ccccc2)C[C@H](O)[C@H](Cc2ccccc2)NC(=O)OCc2cncs2)C(C)C)cs1` [ritonavir]: the “inhibitory effect (in words)” value in the assay on HTLV-1 PR [3] is on record as “not an effective inhibitor”; against HTLV-3 PR [4], “did not inhibit”; on HTLV-2 PR [5], “did not inhibit”. The loss of activity on HTLV-3 PR [4] and at HTLV-2 PR [5] was below 50% in each case. Moreover, in assay [7], the “inhibition of NF-κB transcriptional activation” value is reported as “ritonavir-dependent inhibition of NF-κB transcriptional activation”. In addition, the anti-leukemic activity entry with ATLL cells was “anti-leukemic activity against ATLL cells ex vivo”.

B1: HTLV-1 L57G (protein, UniProt P10274 450-574, looked up, variant L57G)
Protease: PVIPLDPARRPVIKAQVDTQTSHPKTIEALLDTGADMTVLPIALFSSNTPLKNTSVGGAGGQTQDHFKLTSLPVLIRLPFRTTPIVLTSCLVDTKNNWAIIGRDALQQCQGVLYLPEAKRPPVIL
modifications: Protease
In the case of B1, in the assay on HTLV-1 PR [8], the “activity of mutant (in words)” value was “inefficient enzyme; also recorded: did not hydrolyze the CA/NC cleavage site peptide”.

B2: HTLV-1 M37D (protein, UniProt P10274 450-574, looked up, variant M37D)
Protease: PVIPLDPARRPVIKAQVDTQTSHPKTIEALLDTGADDTVLPIALFSSNTPLKNTSVLGAGGQTQDHFKLTSLPVLIRLPFRTTPIVLTSCLVDTKNNWAIIGRDALQQCQGVLYLPEAKRPPVIL
modifications: Protease
B2: the self-processing entry with HTLV-1 PR [8] is on record as “no”.

B3: HTLV-1 A59I (protein, UniProt P10274 450-574, looked up, variant A59I)
Protease: PVIPLDPARRPVIKAQVDTQTSHPKTIEALLDTGADMTVLPIALFSSNTPLKNTSVLGIGGQTQDHFKLTSLPVLIRLPFRTTPIVLTSCLVDTKNNWAIIGRDALQQCQGVLYLPEAKRPPVIL
modifications: Protease
In the case of B3, in the assay with HTLV-1 PR [8], the “activity of mutant (in words)” value is reported as “undetectable activity”.

B4: HTLV-1 F67Q (protein, UniProt P10274 450-574, looked up, variant F67Q)
Protease: PVIPLDPARRPVIKAQVDTQTSHPKTIEALLDTGADMTVLPIALFSSNTPLKNTSVLGAGGQTQDHQKLTSLPVLIRLPFRTTPIVLTSCLVDTKNNWAIIGRDALQQCQGVLYLPEAKRPPVIL
modifications: Protease
On to B4, for which, in the assay on HTLV-1 PR [8], the “activity of mutant (in words)” value is listed as “not tolerated” and the self-processing result is given as “no”.

B5: HTLV-1 wild-type: wild-type HTLV-1 PR, self-processing studied previously (protein, UniProt P10274 450-574, looked up)
Protease: PVIPLDPARRPVIKAQVDTQTSHPKTIEALLDTGADMTVLPIALFSSNTPLKNTSVLGAGGQTQDHFKLTSLPVLIRLPFRTTPIVLTSCLVDTKNNWAIIGRDALQQCQGVLYLPEAKRPPVIL
modifications: Protease
notes: wild-type HTLV-1 PR, self-processing studied previously
As for B5, the self-processing result in the assay with HTLV-1 PR [8] is “yes”.

B6: ASPRV1: human retroviral-like aspartic protease 1 (literature) (protein, UniProt Q53RT3 191-326, looked up)
Retroviral-like aspartic …: SMGKGYYLKGKIGKVPVRFLVDSGAQVSVVHPNLWEEVTDGDLDTLQPFENVVKVANGAEMKILGVWDTAVSLGKLKLKAQFLVANASAEEAIIGTDVLQDHNAILDFEHRTCTLKGKKFRLLPVGGSLEDEFDLE
As for B6, in [9], the pH optimum was 6.27 ± 0.02.
